From PubChem BioAssay (NCI)
Values joined by “and” are separate entries in the source; they are usually repeats but may differ in a detail not shown here. Equal entries are not always repeated.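 Step 1: Grow cells in 96-well plates. Step 2: Expose to compound for 48 hours at 5 concentrations. Step 3: Interpolate endpoints linearly; if unreached, use highest concentration. At the GI50, growth is halved. TGI is the concentration that stops growth completely.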

Experiments:
Test in all cases: growth of human tumour cells (NCI), 48 h
NCI-H226 lung = test system: NCI-H226 lung
MCF7 breast = test system: MCF7 breast
HCC-2998 colon = test system: HCC-2998 colon
786-0 renal = test system: 786-0 renal
NCI/ADR-RES ovarian = test system: NCI/ADR-RES ovarian
MOLT-4 leukemia = test system: MOLT-4 leukemia
A549 NSCLC = test system: A549 NSCLC
RPMI-8226 leukemia = test system: RPMI-8226 leukemia
MDA-MB-435 = test system: MDA-MB-435
SR leukemia = test system: SR leukemia

SMILES	GI50 (NCI-H226 lung)	TGI (NCI-H226 lung)	GI50 (MCF7 breast)	TGI (MCF7 breast)	GI50 (HCC-2998 colon)	TGI (HCC-2998 colon)	GI50 (786-0 renal)	TGI (786-0 renal)	GI50 (NCI/ADR-RES ovarian)	TGI (NCI/ADR-RES ovarian)	GI50 (MOLT-4 leukemia)	TGI (MOLT-4 leukemia)	GI50 (A549 NSCLC)	TGI (A549 NSCLC)	GI50 (RPMI-8226 leukemia)	TGI (RPMI-8226 leukemia)	GI50 (MDA-MB-435)	TGI (MDA-MB-435)	GI50 (SR leukemia)	TGI (SR leukemia)
CCN1CCN(c2ccc(NC(=O)Nc3nc4ccc(-c5ccccc5OC)cc4s3)cc2)CC1	2.09 µM	4.52 µM	1.31 µM	2.86 µM	1.83 µM	3.39 µM	1.8 µM	3.28 µM	1.72 µM	3.35 µM	1.8 µM	3.67 µM	1.98 µM	3.59 µM	2.06 µM	4.6 µM	1.71 µM	3.14 µM	1.65 µM	4.31 µM
COc1cc2c(cc1OCC(=O)Nc1ccc(Cl)cc1C(=O)c1ccccc1Cl)N=CC1CCCN1C2=O (centres undefined)	17.6 µM	34.3 µM	5.27 µM	17.5 µM	13.4 µM	34.3 µM	12.4 µM	26 µM	21.5 µM	64.8 µM	4.44 µM	28.2 µM	16.8 µM	33 µM	20.3 µM	98.8 µM	13 µM	26.3 µM	3.7 µM	28 µM
Clc1ccc2c(NC3CCC(N4CCCCC4)CC3)ccnc2c1 (centres undefined)	–	48.1 µM	–	> 100 µM	–	27.4 µM	–	41.7 µM	–	> 100 µM	–	> 100 µM	–	> 100 µM	–	84 µM	–	28.5 µM	–	35.5 µM
C[C@@H]1CC[C@@H]2[C@@H]1[C@H](OC(=O)/C=C/C1CCCCC1)[C@]1(C3CCCCC3)C[C@@H](OC(=O)CO)[C@@]2(C)O1	14.3 µM	28 µM	12.8 µM	25.6 µM	16 µM	29.6 µM	12 µM	24.1 µM	0.579 µM	18.4 µM	13.7 µM	31.3 µM	14.2 µM	27.1 µM	15.2 µM	34.5 µM	15.5 µM	31 µM	14 µM	32.9 µM
CC(C)[C@@H](C(=O)O[C@@H]1/C=C/C(=O)O[C@@H](C)CCC/C=C/[C@@H]2C[C@H](O)C[C@H]21)N(C)C	9.21 µM	36.4 µM	11.9 µM	43.1 µM	20 µM	55.1 µM	9.9 µM	52.3 µM	24.6 µM	> 93.6 µM	15.9 µM	42.8 µM	24 µM	> 100 µM	3.93 µM	27.1 µM	7.43 µM	41.4 µM	14.9 µM	38.1 µM
c1ccc2c(N=NSc3ncnc4nc[nH]c34)c3ccccc3nc2c1	0.641 µM	2.31 µM	0.37 µM	10.4 µM	1.49 µM	3.77 µM	1.79 µM	13.8 µM	1.19 µM	8.39 µM	0.454 µM	4.83 µM	0.648 µM	3.89 µM	2.42 µM	6.82 µM	1.97 µM	6.12 µM	1.06 µM	8.17 µM
COc1ccc2c3ccnc(C(F)(F)F)c3n(CCCCN)c2c1	7.42 µM	30.5 µM	4.61 µM	17.4 µM	5.23 µM	16.7 µM	7.09 µM	19.4 µM	8.6 µM	28.1 µM	3.93 µM	12.8 µM	11.6 µM	26.3 µM	3.05 µM	15.8 µM	5.69 µM	20.7 µM	2.64 µM	9.52 µM
O=C1C2=C(C(=O)c3ccccc31)C(O)(S(=O)(=O)O)C(O)(S(=O)(=O)O)C1N=CC=CC21 (centres undefined)	9.22 µM and 11.9 µM	69.2 µM and 27.7 µM	4.9 µM and 3.26 µM	29.1 µM and 27.2 µM	4.63 µM and 3.93 µM	60.4 µM and 17.5 µM	5.03 µM and 4.29 µM	25 µM and 17.4 µM	2.45 µM and 1.27 µM	18.6 µM and 23.7 µM	7.06 µM and 4.38 µM	> 100 µM and 34.4 µM	4.75 µM and 4.09 µM	37.1 µM and 16.1 µM	4.99 µM and 3.99 µM	> 100 µM and 27.6 µM	4.56 µM and 3.56 µM	80.5 µM and 24.8 µM	4.58 µM and 1.14 µM	> 100 µM and 50.1 µM
COC(=O)Nc1nc2ccc(C(=O)c3cccc(I)c3)cc2[nH]1	0.259 µM	25.4 µM	0.0369 µM	15.9 µM	0.208 µM	30.6 µM	0.0848 µM	6.15 µM	0.0448 µM	1.54 µM	0.0609 µM	10.6 µM	0.0699 µM	15 µM	0.0365 µM	1.27 µM	0.0211 µM	0.051 µM	0.0314 µM	–
Cc1ccsc1C(NC(=O)c1ccccc1)c1cc(Cl)c2cccnc2c1O (centres undefined)	1.4 µM	7.35 µM	0.379 µM	16.2 µM	0.775 µM	16.2 µM	1.19 µM	11.4 µM	0.284 µM	7.18 µM	0.622 µM	34.6 µM	0.764 µM	13.6 µM	0.475 µM	16.3 µM	0.505 µM	17.2 µM	0.398 µM	12.3 µM
COc1cc2ncnc(Oc3ccc(NC(=O)Nc4ccc(CN5CCOCC5)c(C(F)(F)F)c4)c4ccccc34)c2cc1OC	0.264 µM	16 µM	0.363 µM	10.7 µM	4.8 µM	18.8 µM	0.831 µM	6.74 µM	0.919 µM	21 µM	0.199 µM	2.08 µM	0.734 µM	10.5 µM	0.297 µM	2.02 µM	0.436 µM	2.83 µM	0.752 µM	6.02 µM
COc1cc(OC)c(/C=C/C(=O)c2c(OC)cc(OC)cc2OC)c(OC)c1	3.41 µM	> 100 µM	1.41 µM	> 100 µM	1.24 µM	10 µM	2.02 µM	> 74.7 µM	0.469 µM	10 µM	1.53 µM	> 100 µM	1.72 µM	> 76.3 µM	0.566 µM	3.03 µM	0.235 µM	0.694 µM	0.206 µM	0.761 µM
